Measurements published in PMC5628445, “Four terpene synthases contribute to the generation of chemotypes in tea tree (Melaleuca alternifolia)” (BMC Plant Biology, 2017).

Assays:
Test in all cases: radiometric assay, pentane extraction and scintillation counting; Lineweaver-Burk
Assay type in all cases: biochemical, Melaleuca alternifolia
[1] = tested on: T1, MaTPS-SaH (sabinene hydrate synthase); conditions: 0.25 mM manganese; 30 °C; 15 min; 1–30 μM 3H-GPP; crude E. coli extract; labelled compound
T1 construct: vector pASK-IBA7; expressed in E. coli, crude extract
Text: radiometric assay, pentane extraction and scintillation counting; Lineweaver-Burk on MaTPS-SaH (sabinene hydrate synthase)

[2] = tested on: T2, MaTPS-Cin (1,8-cineole synthase); MaTPS-CinA; conditions: 0.25 mM manganese; 30 °C; 10 min; 1–30 μM 3H-GPP; crude E. coli extract; labelled compound
T2 construct: vector pASK-IBA7; expressed in E. coli, crude extract
Text: radiometric assay, pentane extraction and scintillation counting; Lineweaver-Burk on MaTPS-Cin (1,8-cineole synthase); MaTPS-CinA

[3] = tested on: T3, MaTPS-Tln (terpinolene synthase); conditions: 0.25 mM manganese; 30 °C; 15 min; 3H-GPP up to 100 μM; crude E. coli extract; labelled compound
T3 construct: vector pASK-IBA7; expressed in E. coli, crude extract
Text: radiometric assay, pentane extraction and scintillation counting; Lineweaver-Burk on MaTPS-Tln (terpinolene synthase)

Km [1]: 11 ± 2 µM
Km [2]: 31 ± 6.26 µM
Km [3]: 21 ± 3.18 µM
Compound: CC(C)=CCC/C(C)=C/COP(=O)(O)OP(=O)(O)O [GPP]
